Test results: patent US12729368B2, “Methods and compositions for generating oligodendrocyte progenitor cells” (Trailhead Biosystems Inc., priority 2022, dated 2026)
Values joined by “and” are separate entries in the source; they are usually repeats but may differ in a detail not shown here. Equal values may be shown once.

Tests used:
stage 2 early-OPCs = assay: HD-DoE 12-factor model for stage 3 (version 1) on stage 2 early-OPCs; assay type: cell-based, human; details: for factor contribution: positive
Procedure: In another model, the effects of Activin A and TTNPB along with LDN193189, MHY1485, PDGF-AA, AICAR, FGF2, CHIR99021, DBZ, MK2206, Purmorphamine and T3+T4 were tested on gene profile of differentiating cells. When this model was optimized for maximum expression of SOX10 at 54.7, we observed Activin A again had positive regulatory impact on its expression, with factor contribution of 4.7. Other positive factors included MK2206, with the highest factor contribution at 16.2, MHY1485 at 11.49, CHIR99021 at 9.6, DBZ at 9.3, FGF2 at 3.6 and PDGF-AA, with factor contribution less than 3 (FIG. 20).
In this model, we also investigated the conditions of expression of another important OPC gene, CSPG4 (Goldman and Kuypers (2015) Development 142:3983-95: van Tilborg et al. (2018) Glia 66:221-238).
Dynamic profile analysis was used to better assess the impact of the factors on our selected genes and find the combination set that can optimize their expression (FIG. 22). According to this analysis, even though Activin A has a positive effect on SOX10, it decreases level of PDGFRa and OLIG1. […] Moreover, SOX10 is one of the main transcription factors of oligodendrocytes, along with OLIG2 and NKX2-2, that has shown the potential to commit the stem cells to oligodendrocytes in reprogramming efforts (Wang et al. (2014) Proc Natl Acad Sci USA 111:E2885-94; Garciá-León et al. (2018) Stem Cell Reports 10:655-672). […] One of the main challenges of differentiating cells to oligodendrocyte fate is controlling the mixed population and increasing the purity of the culture by committing more cells to oligodendrocyte over neuronal identity. Therefore, DBZ was excluded from the final recipe.
At this point, we investigated the expression profile of a larger group of genes defining oligodendrocyte progenitor population at a later stage, including ID2, CNP and BCAN (Perlman et al. (2020). Glia 68:1291-1303; Goldman and Kuypers (2015) Development 142:3983-95). In this model, these genes were expressed at 1900, 660 and 44, respectively.

OPCs = assay: HD-DoE 12-factor model for stage 4 on OPCs, 6 days in culture; assay type: cell-based, human
Procedure: To engineer the recipe of stage 4 of differentiation, 48 or 96 different combinations of effectors generated using Design-of-Experiments compression through D-optimality were robotically prepared. The effector combinations were prepared in a basal media and were subsequently added to the cells, which were treated with the stage 1, stage 2 and stage 3 differentiation media as described in the earlier examples to generate OPCs. […] Solutions within the tested space could then be explored to address desirability. […] Benarroch (2009) Neurology 72:1779-1785; Shi et al. (2019) Exp Ther Med, 18:1258-1266).

pre-OPCs [1] = assay: HD-DoE 12-factor model for stage 2 (version 1), 3 days on stage 1 pre-OPCs; assay type: cell-based, human; details: for factor contribution: optimized for maximum expression of OLIG2 at 1841.6
Text: To engineer the recipe of stage 2 of differentiation, cells were first cultured in the stage 1 media described in Example 1 and then treated with combinations of 8 or 12 factors for 3 days and the gene expression of cells in each condition was modeled. At this point, due to short duration of culture (only six days in vitro), we decided to focus on maximal expression of OLIG2 and maintenance of high expression of NKX2-2, while initiating expression of SOX10, OLIG1 and PDGFRa, to guide the cells towards oligodendrocyte fate (Emery and Lu (2015). Cold Spring Harb Perspect Biol. 7:a020461; Perlman et al. (2020). Glia 68:1291-1303; Goldman and. Kuypers (2015) Development 142:3983-95).
In one 12-factor model, the individual and combinatorial impact of SUN 11602 an agonist for FGF signaling pathway, FGF2, Activin A an activator of one of the receptors of TGF-b superfamily, A 8301, an inhibitor of TGF-b pathway, CHIR99021 a WNT activator, AGN193109 a RA antagonist, MK2206 an AKT inhibitor, Purmorphamine an agonist of SHH signaling pathway, AZD3147 an antagonist of mTOR pathway, MHY1485 an agonist of mTOR pathway, SC79 an agonist of AKT pathway and G06983 an inhibitor of PKC pathway, were tested.
Dynamic profile analysis was used to assess the expression levels of other genes of interests, such as NKX2-2, OLIG1 and SOX10, while the model is maximized for OLIG2. Activin A and SUN 11602 were brought down to zero due to their very low factor contribution. We observed when the model is optimized, the expression level of NKX2-2 is at 3000, PDGFRa at 1000, OLIG1 at 80 and SOX10 at 15 (FIG. 12).

pre-OPCs [2] = assay: HD-DoE 8-factor model for stage 2 (version 2) on pre-OPCs; assay type: cell-based, human; details: for factor contribution: positive
Procedure: To engineer the recipe of stage 2 of differentiation, cells were first cultured in the stage 1 media described in Example 1, then, 48 or 96 different combinations of effectors generated using Design-of-Experiments compression through D-optimality were robotically prepared. The effector combinations were prepared in a basal media and were subsequently added to the cells, which were then allowed to differentiate. Three days later RNA extraction was performed, and gene expression was obtained using quantitative PCR analysis. The data was normalized and modeled using partial least squares regression analysis to the effector design, resulting in the generation of gene-specific models, which after model tuning for maximal predictive power, provided explanation of the effectors ability to control the expression of individual genes, combinatorically, and individually. Solutions within the tested space could then be explored to address desirability.
At this point, due to short duration of culture (only six days in vitro) we decided to focus on maximal expression of OLIG2 and maintenance of high expression of NKX2-2, while initiating expression of SOX10, OLIG1 and PDGFRa, to guide the cells towards oligodendrocyte fate (Emery and Lu (2015). Cold Spring Harb Perspect Biol. 7:a020461; Perlman et al. (2020). Glia 68:1291-1303; Goldman and Kuypers (2015) Development 142:3983-95). In one 8-factor model, the individual and combinatorial impact of CHIR99021 (a WNT pathway agonist), AGN193109 (an RA pathway antagonist), FGF-2 (an FGFR agonist), Purmorphamine (an SHH pathway agonist), AICAR (an AMPK agonist), GW3965 (an LXR pathway agonist), GW590735 (a PPAR-a agonist) and AZD3147 (a mTOR antagonist) on further differentiation of cells were tested.

[3] = tested on: human pluripotent stem cells; assay: HD-DoE #2: 13-factor model, differentiation toward anterior neuroectoderm, gene expression; assay type: cell-based
Text: To further enhance the conditions for oligodendrocyte differentiation from pluripotency, we performed an additional HD-DoE experiment. We obtained additional gene regulatory models that were used for preparation of a differentiation protocol. The basis of this was a 13-factor HD-DoE experiment with focus on initiation of differentiation of cells toward anterior neuroectoderm. In this model, we focused on expression of FEZF2 and OTX2.
As shown in the results summarized in FIG. 4, the model was optimized for highest expression of OTX2 at 12755.9. According to the model of high expression of OTX2, seven effectors had positive contribution including MK2206, PD0325901, CHIR99021, LDN193189, Go6983, PD173074 and BLU9931 with highest factor contribution of 22.2 for MK2206 and lowest factor contribution of 1.7 for PD173074 and BLU9931.
As shown in the results summarized in FIG. 5, the model was optimized for highest expression of FEZF2 at 4466. When the model was optimized for maximum expression level of FEZF2, three effectors including LDN193189 with factor contribution of 19.5, PD0325901 with factor contribution of 14.6 and MK2206 with factor contribution of 12.3 were common with previous condition and three new effectors including purmorphamine-500 nM, XAV939 and SC79 were introduced.
As shown in the results summarized in FIG. 6, to fine-tune the recipe and find the optimum combination of factors for high expression of both OTX2 and FEZF2, dynamic profiling analysis was done. […] Therefore, these two factors were added to the optimized culture recipe.

[4] = tested on: cells cultured in stage 1 and stage 2 differentiation media; assay: HD-DoE 8-factor model for stage 3 (version 2); assay type: cell-based, human; details: positive
Procedure: To further differentiate the cells to an oligodendrocyte progenitor identity, additional HD-DoE experiments were performed on the cells that were cultured in stage 1 and stage 2 differentiation media. After 3 days, gene expression of cells in different combinatorial conditions were investigated. At this time, we focused on maximal expression of signature oligodendrocyte progenitor genes such as SOX10, OLIG1 and PDGFRa (Goldman and Kuypers (2015) Development 142:3983-95: Marques et al. (2016) Science 352:1326-1329). In one 8-factor model, individual and combinatorial effects of TTNPB (an RA agonist), CHIR99021, FGF-2, IGF-1, AGN193109, Purmorphamine, MHY1485 (a mTOR pathway agonist) and SC79 (an AKT pathway agonist) were tested to guide the cells toward a SOX10/PDGFRa positive population. […] CHIR99021 was also positive, with a factor contribution of 8.1 (FIG. 33).
Other positive factors were IGF-1, with a factor contribution of 11.2, CHIR99021, with a factor contribution of 8.5 and TTNPB, with a factor contribution below 1 (FIG. 34).
To confirm the impact of TTNPB, FGF-2 and IGF-1 on a bigger scale, we investigated the expression profile of a larger group of genes defining late oligodendrocyte progenitor population, such as ID2, CSPG4, FYN, SOX8, PLP1 and BCAN (Perlman et al. (2020). Glia 68:1291-1303; Goldman and Kuypers (2015) Development 142:3983-95; van Tilborg et al. (2018) Glia 66:221-238) and neuronal genes such as NEUROD1, NEUROG1 and NEUROG2 in presence of IGF-1, FGF-2 or TTNPB.

[5] = optimized for maximum expression of OLIG1 at 454.7
[6] = optimized for maximum expression of OLIG2 at 3325
[7] = model optimized for highest expression of OTX2 at 12755.9, positive contribution
[8] = optimized for maximum expression of SOX10 at 54.7
[9] = dynamic profile, model maximized for OLIG2
[10] = optimized for maximum expression of CSPG4 at 38.6
[11] = dynamic profiling analysis, 13-factor model

NC(=O)c1ncn([C@@H]2O[C@H](CO)[C@@H](O)[C@H]2O)c1N [AICAR]
effect on late OPC genes ID2, CNP and BCAN (stage 2 early-OPCs; factor effect plots): positively regulates
factor contribution (OPCs; optimized for PLP1 at 3600, negative impact): 12 and 11.8

C[C@H]1COCCN1c1cc(C2(S(=O)(=O)C3CC3)CC2)nc(-c2ccc(NC(=S)NCCO)cc2)n1 [AZD3147]
factor contribution (pre-OPCs [1]; positive regulatory effect): 5.2
factor contribution (pre-OPCs [2]; [5]): 26.7 and 26.76
factor contribution (pre-OPCs [2]; [6]): 30.2

C=CC(=O)Nc1cccc(C)c1Nc1ncc2cc(-c3c(Cl)c(OC)cc(OC)c3Cl)ccc2n1 [BLU9931]
factor contribution [3, 7]: 1.7

Cc1c[nH]c(-c2cnc(NCCNc3ccc(C#N)cn3)nc2-c2ccc(Cl)cc2Cl)n1 [CHIR99021]
factor contribution ([4]; optimized for SOX10 at 41.04): 8.1
factor contribution ([4]; optimized for maximum expression of PDGFRa at 853.4): 8.5
factor contribution (stage 2 early-OPCs; [8]): 9.6
factor contribution (pre-OPCs [2]; [5]): 22.8
factor contribution (pre-OPCs [2]; [6]): 17.96

C[C@H](NC(=O)Cc1cc(F)cc(F)c1)C(=O)N[C@@H]1C(=O)N(C)c2ccccc2-c2ccccc21 [DBZ]
effect on neuronal genes (stage 2 early-OPCs; dynamic profile / factor effect plots): increases neuronal genes
factor contribution (stage 2 early-OPCs; [8]): 9.3

C[C@H](NC(=O)Cc1cc(F)cc(F)c1)C(=O)N[C@@H]1C(=O)N(C)c2ccccc2-c2ccccc21 [GSI-XX]
effect on expression of neuronal genes NeuroG1, NeuroG2 and NeuroD1 (OPCs; dynamic profile analysis): positively regulates
factor contribution (OPCs; optimized for CNP at 1790, positive): 7

Cc1nc(-c2ccc(C(F)(F)F)cc2)sc1C(=O)NCc1ccc(OC(C)(C)C(=O)O)cc1 [GW590735]
impact on SOX10 and NKX2-2 expression (pre-OPCs [2]; [9]): negative impact
factor contribution (pre-OPCs [2]; [5]): 3.1
factor contribution (pre-OPCs [2]; [6]): 5.4

COc1ccc2c(c1)c(C1=C(c3c[nH]c4ccccc34)C(=O)NC1=O)cn2CCCN(C)C [Go6983]
effect on expression of SOX10 (pre-OPCs [1]; [9]): positively regulate
impact on PDGFRA (pre-OPCs [1]; [9]): significant negative impact
factor contribution (pre-OPCs [1]; negative impact): 10.2 and 10.22

NC1(c2ccc(-c3nc4ccn5c(=O)[nH]nc5c4cc3-c3ccccc3)cc2)CCC1 [MK2206]
factor contribution (pre-OPCs [1]; positive regulatory effect): 5.3
factor contribution ([3]; model optimized for highest expression of FEZF2 at 4466, positive): 12.3
factor contribution [3, 7]: 22.2
factor contribution (stage 2 early-OPCs; [10]): 5.2
factor contribution (stage 2 early-OPCs; [8]): 16.2

CCN(CC)CCCCNc1ncc2cc(-c3cc(OC)cc(OC)c3)c(NC(=O)NC(C)(C)C)nc2n1 [PD173074]
factor contribution [3, 7]: 1.7

Oc1nc(-c2ccc(C(F)(F)F)cc2)nc2c1CSCC2 [XAV939]
effect on expression of FEZF2 [3, 11]: significant positive effects
impact on expression level of OTX2 [3, 11]: no negative impact

PDGF-AA: PDGFR pathway agonist
factor contribution (stage 2 early-OPCs; [10]): 2.9
factor contribution (stage 2 early-OPCs; [8]): less than 3
